Assay: Colloidal aggregation under TmPPase assay conditions (nephelometry)
Assay type: physicochemical
Protocol: Aggregation data for 5, 12k and 12l (Figure S1)
Potential colloidal aggregation in the TmPPase model system was studied at five concentrations (50 µM, 25 µM, 10 µM, 5 µM, and 1 µM). The original assay conditions were simulated, and the light scattering of potential aggregates in the mixture was studied by nephelometric methods using Nepheloskan Ascent® (Labsystems, Finland). Aggregation of the blank and compounds 5, 12k and 12l were measured as triplicates from one independent experiment at three different voltages (300 V, 400 V and 500 V) at room temperature.
5 µM and 1 µM concentrations the obtained values were close to those observed by the blank, thereby […]
Figure S1. Aggregation data for compounds 5, 12k and 12l. The data, measured in relative nephelometric units (RNU), is shown as the mean ± SD and normalized to the blank.
(1 picture or pasted object on this page, not shown here)
Experimental procedures and characterization data
Commercial analogues were retrieved by screening the ZINC12 database1 (clean drug-like subset; downloaded on 27.04.2016) using a KNIME2 workflow connected to the RDKit3 nodes. The SAR analyses and docking studies (data not shown) underlying this work were conducted using the Schrödinger molecular modeling platform (Canvas and Glide modules, respectively)4 .
Compounds 1–7, 13–20 and 24 were obtained from commercial suppliers. Supporting Information, Table S1 summarizes the compounds tested. Compound purity was >95% as determined by LC-MS and characterized by HRMS. For all commercial compounds after the initial screen, purity was tested independently from the vendor specification (a few compounds of lower purity are reported only in Supporting Information). To evaluate potential aggregation of samples in the TmPPase based assay, aggregate formation in the assay conditions was studied at five concentrations (50 μM, 25 μM, 10 μM, 5 μM, and 1 μM) for compounds 5, 12k and 12l (Figure S1).
All chemicals used were commercially available. Reactions using anhydrous conditions were conducted in oven-dried (130 °C, >24 h) glassware, purged with argon prior to use. Microwave reactions were performed using a Biotage Initiator+ instrument (Uppsala, Sweden). The progress of the reactions was monitored by thin-layer chromatography on silica gel 60-F254 aluminum plates and visualized by using a dual short/long wave (254/366 nm) UV lamp. The combined organic solutions from extractions were dried over anhydrous Na2SO4, filtered and concentrated with a rotary evaporator at reduced pressure. Flash SiO2 column chromatography was performed with automated high performance flash chromatography, Biotage Isolera™ Spektra Systems with ACI™ and Assist (ISO-1SW Isolera One) equipped with a variable UV-VIS (200–800 nm) photodiode array (Uppsala, Sweden) using SNAP KP-SIL/Ultra 10 g or 25 g cartridges and the indicated mobile phase gradient.
The reactions were not optimized and all the yields are given for purified products.
Characterization of the synthesized products were done by NMR and MS analysis. 1H and 13C NMR spectra were acquired at 298 K on a Bruker Ascend 400 MHz – Avance III HD NMR spectrometer (Bruker Corporation, Billerica, MA, USA). Chemical shifts (δ) are reported in parts per million (ppm) relative to the residual solvent signals: CDCl3 7.26 and 77.16 ppm, CD3OD 3.31 and 49.00 ppm, DMSO-d6 2.50 and 39.52 ppm for 1H and 13C NMR, respectively. […] High resolution mass (HRMS-ESI) data was reported for the calculated and experimentally […]

SMILES: CC(C)(C)c1cc(-c2cc(C(=O)Oc3ccccc3Br)no2)cc(C(C)(C)C)c1 [Compound 12l]
- aggregation (light scattering) (at 10 µM, 5 µM and 1 µM): only minor/no detectable aggregation
- aggregation (light scattering) (at 50 µM and 25 µM): showed aggregate formation

Source: PMC7153278, “Discovery of Membrane-Bound Pyrophosphatase Inhibitors Derived from an Isoxazole Fragment” (ACS Medicinal Chemistry Letters, 2020)
